Assay [1] has as its system neuraminidase (NA) of influenza B viruses. It counts as biochemical, influenza B virus.
Assay [2] concerns neuraminidase (NA) of influenza A (H3N2) viruses. Type of assay: biochemical, influenza A (H3N2) virus.

On to `CCOC(=O)C1=C[C@@H](OC(CC)CC)[C@H](NC(C)=O)[C@@H](N)C1` [Oseltamivir, Oseltamivir (carboxylate)], for which, in assay [1], the “Fold change in IC50 of test viruses, Approach #3” value (“Fold change in IC50 … Approach #3” for short) was 6 (1) fold and the “fold change in IC50 of outliers” value is listed as 53·02 (6) fold.

For `CC(=O)N[C@H]1[C@H]([C@H](O)[C@H](O)CO)OC(C(=O)O)=C[C@@H]1N=C(N)N` [Zanamivir, zanamivir], in assay [2], the “Fold change in IC50 of test viruses, Approach #1” value is recorded as 132 (1) fold; the “Fold change in IC50 of test viruses, Approach #2” value is reported as 132 (1) fold; the “Fold change in IC50 … Approach #3” value was 91 (1) fold; the “fold change in IC50 of outliers” value is recorded as 23·75 (91) fold. In assay [1], the “Fold change in IC50 … Approach #3” value is 5 (1) fold and the “fold change in IC50 of outliers” value is 5·11 (5) fold.

The record behind these values is article PMC4186475 (Influenza and Other Respiratory Viruses, 2013).
